Where two headings read alike, the source gives them in different places.
Experiments:
Format in all cases: cell-based, human
MET1 cells [1] = assay: Cytotoxicity (resazurin cell viability) in MET1 cells; details: Homo sapiens, MET-1, MET1 cells, 1.25-320 µM
Excerpt: (§1) The MET1 SCC cell line (human squamous cell carcinoma) was obtained from Ximbio (London, UK), HaCaT (immortalized human keratinocytes cell line) was obtained from Addexbio (San Diego, CA, USA) and WM983b (human metastatic melanoma cell line) was obtained from Rockland (Pottstown, PA, USA). Cells were maintained in Dulbecco’s Modified Eagle Medium (DMEM) supplemented with 10% (v/v) fetal bovine serum (FBS) for MET1 and HaCaT and 5% (v/v) for WM983b cells, and Pen–Strep (penicillin 100 U/mL and streptomycin 100 µg/mL). Cells were cultivated in an incubator (Sanyo MCO-19AIC-UV) at 37 °C in a 5% CO2 humidified atmosphere.
(§2) First, 96-well plates were seeded with HaCaT and MET1 cells at a density of 20,000 cells/cm² and incubated for 24 h. After that period, the culture medium was replaced by culture medium containing different compounds: MB, AO, GV, QT, CUR, EGCG, PHE, NEO and BIPY. The compounds were diluted in culture medium using a range of concentrations of each compound from 1.25 µM to 320 µM (in quadruplicate). The medium was aspirated from the 96-well plate and replaced by the samples diluted in medium. Cells cultured with complete medium and cells cultured with medium supplemented with 0.2% (v/v) or 10% (v/v) of DMSO were used as negative (NC), solvent (SC) and positive controls (PC), respectively. The plates were incubated for 24 and 48 h, followed by evaluation of cell viability using a colorimetric assay. Cells containing samples were washed with PBS supplemented with calcium and magnesium; then, resazurin solution diluted in DMEM at 0.02 mg/mL was added. The medium containing resazurin was also dispensed in wells without cells, which were used as references. After 3 h of incubation, the absorbance was measured in a microplate reader (ELX800UV, Biotek Instruments) at wavelengths of 570 nm and 600 nm. The corrected absorbance was proportional to cell viability. Propagation of uncertainties was used to calculate the combined standard uncertainty. For the cytotoxicity study using WM983b cells, plates were seeded at a density of 40,000 cells/cm², and cells were treated only with MB and AO.

HaCaT cells = assay: Cytotoxicity (resazurin cell viability) in HaCaT cells; details: Homo sapiens, HaCaT cells, 1.25-320 µM
Excerpt: as §1, §2

[2] = Phototoxicity assay in MET1 cells (irradiation 2.5 J/cm², resazurin); details: human, MET1 squamous cell carcinoma cells; MET1 cells, 457 nm, all investigated concentrations (1.25-40 µM); read-out: cell viability under 457 nm light
Experimental: (§3) The […] SCC cell line (human squamous cell carcinoma) was obtained from Ximbio (London, UK), HaCaT (immortalized human keratinocytes cell line) was obtained from Addexbio (San Diego, CA, USA) and WM983b (human metastatic melanoma cell line) was obtained from Rockland (Pottstown, PA, USA). […] Cells were cultivated in an incubator (Sanyo MCO-19AIC-UV) at 37 °C in a 5% CO2 humidified atmosphere. […] The plates were incubated for 24 h, followed by washing with PBS supplemented with calcium and magnesium. Afterwards, complete culture medium without phenol red was added, and the plates were irradiated from above and submitted to a dose of 2.5 J/cm2 of irradiation emitted by different wavelength light sources coupled with a homemade irradiation system created in our laboratory. […] This experiment was performed in an incubator that was able to keep plates in a dark environment; therefore, the dark control plates were protected from any light source, as well as the others, with the exception of the irradiation that each one was submitted to. Plates were incubated for another 24 h, and finally, the resazurin assay was performed as previously described in Section 3.3. For the phototoxicity study using WM983b cells, plates were prepared at a cell density of 40,000 cells/cm2, and cells were treated with MB and AO only.

MET1 cells [3] = assay: as above; details: Homo sapiens, MET-1, light or radiation study, MET1 cells, treated 24 h
Experimental: as §3

MET1 cells [4] = assay: Intracellular ROS production in MET1 cells (DHE fluorescence); details: 5 µM
Experimental: MET1 cells were seeded at a density of 20,000 cells/cm² in 24-well plates. After 24 h, cells were treated with MB and AO diluted in culture medium at low concentrations (1.25 µM, 2.5 µM and 5 µM). The medium culture was replaced by the prepared samples. Plates were incubated for 24 h; then, cells were washed with medium, and DMEM without phenol red was added. The plates were submitted to 2.5 J/cm² irradiation under red light at 640 nm for MB and 457 nm blue light for AO. Dihydroethidium (DHE) was used to evaluate ROS production. For this assay, the medium was removed after irradiation, and 20 µM of DHE diluted in medium was added. The plate was incubated for 20 min, washed with medium and incubated 20 min with Hoechst 33342 (5 µg/mL), which was used to stain the cells’ nuclei. After removing the excess dye, culture medium was added, and the cells were immediately observed using a Nikon Ti-S epifluorescence microscope. Cells were examined using a 40 × objective in random areas of 4 different wells under the same treatment condition. Images were analyzed using ImageJ software, and the intensity was measured according to integrated density values of red fluorescence.

WM983b cells = assay: Cytotoxicity (resazurin cell viability) in WM983b cells; details: for IC50: Homo sapiens, 1.25-320 µM
Excerpt: as §1, §2

SMILES: CN(C)c1ccc2cc3ccc(N(C)C)cc3nc2c1 [Acridine orange, acridine orange]
- IC50 (MET1 cells [1]; 24 h exposure, read-out: IC50 MET1 Cells 24 h): 15.1 µM
- IC50 (MET1 cells [1]; 48 h exposure, read-out: IC50 MET1 Cells 48 h): 10.3 µM
- IC50 (HaCaT cells; 24 h exposure, read-out: IC50 HaCaT Cells 24 h): 10.5 µM
- IC50 (HaCaT cells; 48 h exposure, read-out: IC50 HaCaT Cells 48 h): 6.5 µM
- viability at 24 h [2]: < 10%
- IC50 (MET1 cells [3]; 254 nm light, 2.5 J/cm², read-out: IC50 254 nm): 7.1 µM
- IC50 (MET1 cells [3]; 457 nm light, 2.5 J/cm², read-out: IC50 457 nm): 0.4 µM
- IC50 (MET1 cells [3]; 583 nm light, 2.5 J/cm², read-out: IC50 583 nm): 4.1 µM
- IC50 (MET1 cells [3]; 640 nm light, 2.5 J/cm², read-out: IC50 640 nm): 6.6 µM
- IC50 (MET1 cells [3]; dark control (no irradiation), read-out: IC50 Dark): 11.5 µM
- increase in fluorescence (DHE, integrated density) vs irradiated control (MET1 cells [4]; 457 nm irradiation 2.5 J/cm², vs irradiated control 0 µM): about 2.6 fold
- increase in fluorescence intensity (DHE, integrated density) vs non-irradiated control (MET1 cells [4]; non-irradiated, vs non-irradiated control 0 µM): about 1.8 fold
- concentration above which the relative cell population falls below 70% (WM983b cells; 24 or 48 h): > 20 µM
- IC50 (WM983b cells; 24 h exposure, read-out: IC50 WM983b cells 24 h): 25.2 µM
- IC50 (WM983b cells; 48 h exposure, read-out: IC50 WM983b cells 48 h): 6.6 µM

From article PMC10054552, “Phototoxic Potential of Different DNA Intercalators for Skin Cancer Therapy: In Vitro Screening” (International Journal of Molecular Sciences, 2023)
